According to PMC6646405, “A quantitative, high-throughput method identifies protein–glycan interactions via mass spectrometry” (Communications Biology, 2019):
Where “and” joins values, the source holds several entries; their conditions need not be identical. Identical values can stand only once.

Columns and labels:
[1] = tested on: family 51 carbohydrate binding module (CBM51); experiment: CUPRA library screening and affinity, CBM51; conditions: 25uM CBM51; mean of 4 DIi values, FigS3a
Method: Unless otherwise noted, the measurements were performed at 25 °C. […] We identified specific ligands from the depletion index (DIi, Eq. 1) – the change in the fractional abundance (Fi, Eq. 2) ratio of ligand i-bound and free ^UniPproxy ions upon addition of GBP. Prior to calculating Fi, we treated each mass spectrum with the Sliding Window Adducts Removal Method (SWARM)[18] to remove contributions to the abundance of ^UniPproxy -OS^mod complex ions from adducts, formed by the ESI process, of neighbouring complex ions (Supplementary Fig. 2). Shown in Fig. 2a is a summary of the DIi measured by CUPRA screening of the 66-component library against S4 (50 μM). As expected, the average DIi for this negative control is close to 1.0 (0.99 ± 0.03). In contrast, CUPRA screening against the positive controls produced decreases in DIi for one or more of the library components. […] Application of CUPRA to human CD22, part of an important class of Neu5Ac-binding GBPs implicated in both innate and adaptive immunity, correctly identified HMO08 as a ligand (Supplementary Fig. 4a). CUPRA screening of MAA at high concentration (50 μM) identified HMO03 and GA06 as ligands. […]
Using SWARM-treated mass spectra, DIi was calculated for each ligand from the ratio of the fractional abundances (Fi) of ligand (i)-bound and free ^UniPproxy ions in the presence (+GBP) and absence (-GBP) of GBP, Eqs. […]

[2] = biological target: streptavidin homotetramer (S4) (Streptomyces avidinii, UniProt P22629); experiment: CUPRA library screening against negative control streptavidin; format: binding; set-up: key: ratio change on GBP addition; ~1.0 = no binding (negative control); conditions: depletion index, 50 μM streptavidin
[3] = biological target: Cholera toxin B subunit homopentamer (CTB5) (Vibrio cholerae serotype O1, UniProt P01556); format: binding
human siglec-2 (CD22) = biological target: T1, human siglec-2 (CD22) (Homo sapiens, UniProt P20273); experiment: CUPRA library screening and affinity, siglec-2; format: binding; conditions: for average DI: mean of 4 DIi values
T1 construct: Residues 1–332 of human Siglec-2 (MW 140 kDa, purity > 95%) were cloned in frame with human IgG1 Fc and a C-terminal His6; made in house
T1 sequence (P20273 20-332): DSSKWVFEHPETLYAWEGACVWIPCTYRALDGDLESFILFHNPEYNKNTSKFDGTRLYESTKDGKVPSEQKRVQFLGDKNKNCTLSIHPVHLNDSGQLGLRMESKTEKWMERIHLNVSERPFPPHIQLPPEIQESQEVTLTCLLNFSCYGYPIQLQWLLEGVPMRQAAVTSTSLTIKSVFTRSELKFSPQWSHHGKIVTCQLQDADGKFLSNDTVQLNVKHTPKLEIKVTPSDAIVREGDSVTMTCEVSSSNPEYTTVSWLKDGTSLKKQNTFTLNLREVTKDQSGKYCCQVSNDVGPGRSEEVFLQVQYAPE

[4] = biological target: human carbonic anhydrase type 1 (Homo sapiens, UniProt P00915); experiment: Direct ESI-MS affinity of OSmod for the universal proxy protein (UniPproxy); conditions: read-out: Kd of OSmod for UniPproxy; direct ESI-MS, 200 mM aqueous ammonium acetate, pH 7, 25 °C
[5] = biological target: Sambucus nigra lectin (SNA) (Sambucus nigra, UniProt Q41358); format: binding
Sambucus nigra lectin (SNA), sequence (Q41358 309-570 limits assumed): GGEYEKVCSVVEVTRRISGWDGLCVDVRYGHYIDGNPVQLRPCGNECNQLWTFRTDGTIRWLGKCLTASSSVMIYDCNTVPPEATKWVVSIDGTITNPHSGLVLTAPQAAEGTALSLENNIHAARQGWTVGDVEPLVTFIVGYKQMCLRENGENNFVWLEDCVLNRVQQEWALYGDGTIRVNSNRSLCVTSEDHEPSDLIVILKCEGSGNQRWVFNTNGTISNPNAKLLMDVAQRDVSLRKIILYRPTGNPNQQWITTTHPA
Sambucus nigra lectin (SNA), sequence (Q41358 29-289 partner limits assumed): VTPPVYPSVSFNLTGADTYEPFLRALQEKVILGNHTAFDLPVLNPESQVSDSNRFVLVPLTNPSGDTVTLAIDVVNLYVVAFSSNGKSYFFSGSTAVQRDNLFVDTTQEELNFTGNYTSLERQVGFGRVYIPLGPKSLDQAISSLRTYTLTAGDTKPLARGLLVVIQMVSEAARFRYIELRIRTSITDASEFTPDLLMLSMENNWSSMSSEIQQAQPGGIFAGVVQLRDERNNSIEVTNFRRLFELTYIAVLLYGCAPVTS

Cholera toxin B subunit homopentamer (CTB5), sequence (P01556 22-124 limits assumed): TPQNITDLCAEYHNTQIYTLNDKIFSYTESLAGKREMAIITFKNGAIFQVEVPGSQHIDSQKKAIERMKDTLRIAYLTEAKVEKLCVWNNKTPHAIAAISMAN
streptavidin homotetramer (S4), sequence (P22629 25-183): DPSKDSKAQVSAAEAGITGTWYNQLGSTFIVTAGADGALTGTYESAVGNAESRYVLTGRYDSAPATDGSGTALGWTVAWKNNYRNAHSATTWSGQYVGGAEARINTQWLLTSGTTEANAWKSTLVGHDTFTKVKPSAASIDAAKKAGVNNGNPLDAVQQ
human carbonic anhydrase type 1, sequence (P00915 whole entry): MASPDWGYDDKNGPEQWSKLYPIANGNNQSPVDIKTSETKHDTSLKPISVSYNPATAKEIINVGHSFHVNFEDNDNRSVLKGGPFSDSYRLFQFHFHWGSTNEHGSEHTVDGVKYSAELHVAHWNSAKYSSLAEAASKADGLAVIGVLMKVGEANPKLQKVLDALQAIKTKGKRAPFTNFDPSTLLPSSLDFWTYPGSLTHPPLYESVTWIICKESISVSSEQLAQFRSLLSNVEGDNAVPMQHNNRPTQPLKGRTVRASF

CC(=O)N[C@H]1[C@H](O[C@@H]2[C@H](O[C@]3(C(=O)O)C[C@H](O)[C@@H](NC(C)=O)[C@H]([C@H](O)[C@@H](CO)O[C@]4(C(=O)O)C[C@H](O)[C@@H](NC(C)=O)[C@H]([C@H](O)[C@H](O)CO)O4)O3)[C@@H](O)[C@H](O[C@H]3[C@H](O)[C@@H](O)[C@H](N(CCOCCOCCNC(=O)[C@H](Cc4ccccc4)NC(=O)[C@H](Cc4ccccc4)NC(=O)CCCC(=O)NCCc4ccc(S(N)(=O)=O)cc4)C(C)=O)O[C@@H]3CO)O[C@@H]2CO)O[C@H](CO)[C@H](O)[C@@H]1O [GA10, GalNAcβ1-4(Neu5Acα2-8 Neu5Acα2-3)Galβ1-4Glc-CL]
average DI [1]: 0.9576
average DI ([2]; mean of 4): 0.9828
DIi(50uM S4) ([2]; measurement 1 of 4): 0.9829
DIi(50uM S4) ([2]; measurement 2 of 4): 0.9821
DIi(50uM S4) ([2]; measurement 3 of 4): 0.9835
DIi(50uM S4) ([2]; measurement 4 of 4): 0.9826
DIi(2uM CTB5) [3]: 1.017 and 1.023 and 1.026 and 1.032
DIi(10uM CTB5) [3]: 1.049 and 1.055 and 1.045 and 1.05
DIi(10uM CTB5 at 0C) [3]: 1.029 and 1.025 and 1.026 and 1.021
average DI [3]: 1.025 and 1.0497
average DI (human siglec-2 (CD22); 25uM CD22): 0.9974
DIi(25uM CD22) (human siglec-2 (CD22); 25uM CD22, replicate column 1 of 4): 0.9925
DIi(25uM CD22) (human siglec-2 (CD22); 25uM CD22, replicate column 2 of 4): 1.005
DIi(25uM CD22) (human siglec-2 (CD22); 25uM CD22, replicate column 3 of 4): 0.9899
DIi(25uM CD22) (human siglec-2 (CD22); 25uM CD22, replicate column 4 of 4): 1.002
average DI (human siglec-2 (CD22); 25uM CD22 at 0C): 0.9401
DIi(25uM CD22 at 0C) (human siglec-2 (CD22); 25uM CD22 at 0C, replicate column 1 of 4): 0.9406
DIi(25uM CD22 at 0C) (human siglec-2 (CD22); 25uM CD22 at 0C, replicate column 2 of 4): 0.9609
DIi(25uM CD22 at 0C) (human siglec-2 (CD22); 25uM CD22 at 0C, replicate column 3 of 4): 0.9196
DIi(25uM CD22 at 0C) (human siglec-2 (CD22); 25uM CD22 at 0C, replicate column 4 of 4): 0.9395
Kd [4]: 14.1 ± 1.9 µM
DIi(5uM SNA) [5]: 1 and 0.9993 and 0.9948 and 0.9939
average DI [5]: 0.9971
